Data published in patent publication US10766879B2, “Pyrimidine derivatives as kinase inhibitors and their therapeutical applications” (NantBioScience, Inc., priority 2015, dated 2020).

Legend:
Abl kinase = biological target: T1, Abl kinase (Homo sapiens, UniProt P00519); assay: KinaseProfiler kinase inhibition assay, Abl; type: biochemical; settings: 1 μM compound
T1 construct: purchased Millipore (KinaseProfiler Service)

Alk kinase = biological target: T2, Alk kinase (Homo sapiens, UniProt Q9UM73); assay: KinaseProfiler kinase inhibition assay, Alk; type: biochemical; settings: 1 μM compound
T2 construct: purchased Millipore (KinaseProfiler Service)

c-Src kinase = biological target: T3, c-Src kinase (Homo sapiens, UniProt P12931); assay: KinaseProfiler kinase inhibition assay, c-Src; type: biochemical; settings: 1 μM compound; read-out: % Inhibition @1 μM cSrc
T3 construct: purchased Millipore (KinaseProfiler Service)

FGFR1 kinase = biological target: T4, FGFR1 kinase (Homo sapiens, UniProt P11362); assay: KinaseProfiler kinase inhibition assay, FGFR1; type: biochemical; settings: 1 μM compound
T4 construct: purchased Millipore (KinaseProfiler Service)

KDR kinase = biological target: T5, KDR kinase (Homo sapiens, UniProt P35968); assay: KinaseProfiler kinase inhibition assay, KDR; type: biochemical; settings: 1 μM compound
T5 construct: purchased Millipore (KinaseProfiler Service)

Ret kinase = biological target: T6, Ret kinase (Homo sapiens, UniProt P07949); assay: KinaseProfiler kinase inhibition assay, Ret; type: biochemical; settings: 1 μM compound
T6 construct: purchased Millipore (KinaseProfiler Service)

Tie2 = biological target: T7, Tie2 (Homo sapiens, UniProt Q02763); assay: KinaseProfiler kinase inhibition assay, Tie2; type: biochemical; settings: 1 μM compound
T7 construct: purchased Millipore (KinaseProfiler Service)

MDA-MB134 = assay: CellTiterblue viability, 72 hr, MDA-MB134; type: cell-based; settings: MDA-MB134 cells
Method: (§1) A number of studies were performed to analyze the consequences of tyrosine kinase inhibition in cell lines. To do this, 1000 cells are seeded in 27 μl/well in 384-well microplates, which are then placed in a humidified CO2 incubator at 37° C. overnight. The next day, 3 μl/well of 10× concentrated drug is added and the plates are returned to the incubator for 72 hr. After 72 hr incubation, plates are removed and […] CellTiterblue (Promega) viability reagent is added. Plates are returned to the incubator for 3 hr, after which it is fluorescence measurements are read on the Victor X3 plate reader (Perkin Elmer). Data are analyzed using Excel (Microsoft), and GI50 values are determined using Prism (Graphpad).

AN3_CA = assay: CellTiterblue viability, 72 hr, AN3_CA; type: cell-based; settings: Homo sapiens, AN3-CA, AN3_CA cells
Method: as §1

Kato III = assay: CellTiterblue viability, 72 hr, Kato III; type: cell-based; settings: Homo sapiens, Kato III cells
Method: as §1

KG1a = assay: CellTiterblue viability, 72 hr, KG1a; type: cell-based; settings: Homo sapiens, KG-1a, KG1a cells
Method: as §1

RT112 = assay: CellTiterblue viability, 72 hr, RT112; type: cell-based; settings: Homo sapiens, RT-112, RT112 cells
Method: as §1

T6 sequence (P07949 29-1114): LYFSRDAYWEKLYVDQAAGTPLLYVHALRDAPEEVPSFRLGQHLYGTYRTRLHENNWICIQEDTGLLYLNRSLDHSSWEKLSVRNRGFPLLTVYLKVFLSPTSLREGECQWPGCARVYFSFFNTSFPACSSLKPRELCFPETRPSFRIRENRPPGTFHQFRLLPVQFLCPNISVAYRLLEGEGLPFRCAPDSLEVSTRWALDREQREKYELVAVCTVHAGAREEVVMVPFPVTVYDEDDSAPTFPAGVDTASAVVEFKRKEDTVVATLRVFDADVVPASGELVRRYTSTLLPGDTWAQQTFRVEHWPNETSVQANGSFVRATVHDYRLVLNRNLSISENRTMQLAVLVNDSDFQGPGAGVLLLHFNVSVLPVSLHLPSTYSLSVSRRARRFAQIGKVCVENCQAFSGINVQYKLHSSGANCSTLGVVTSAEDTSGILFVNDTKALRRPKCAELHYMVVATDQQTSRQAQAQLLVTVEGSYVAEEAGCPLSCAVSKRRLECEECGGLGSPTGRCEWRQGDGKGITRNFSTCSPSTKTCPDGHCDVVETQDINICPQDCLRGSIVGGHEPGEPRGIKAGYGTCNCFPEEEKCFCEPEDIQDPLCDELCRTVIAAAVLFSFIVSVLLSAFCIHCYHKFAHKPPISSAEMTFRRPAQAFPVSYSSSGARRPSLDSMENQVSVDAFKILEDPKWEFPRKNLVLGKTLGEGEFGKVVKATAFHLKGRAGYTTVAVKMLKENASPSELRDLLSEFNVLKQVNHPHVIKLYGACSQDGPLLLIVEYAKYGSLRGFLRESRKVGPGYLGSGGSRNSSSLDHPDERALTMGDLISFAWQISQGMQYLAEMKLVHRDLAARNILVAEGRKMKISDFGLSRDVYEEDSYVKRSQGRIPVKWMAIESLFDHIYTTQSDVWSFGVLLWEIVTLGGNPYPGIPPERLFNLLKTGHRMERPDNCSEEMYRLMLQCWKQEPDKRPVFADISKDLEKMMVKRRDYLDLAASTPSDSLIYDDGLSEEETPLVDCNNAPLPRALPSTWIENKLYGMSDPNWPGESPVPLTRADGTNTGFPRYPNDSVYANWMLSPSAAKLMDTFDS
T3 sequence (P12931 whole entry): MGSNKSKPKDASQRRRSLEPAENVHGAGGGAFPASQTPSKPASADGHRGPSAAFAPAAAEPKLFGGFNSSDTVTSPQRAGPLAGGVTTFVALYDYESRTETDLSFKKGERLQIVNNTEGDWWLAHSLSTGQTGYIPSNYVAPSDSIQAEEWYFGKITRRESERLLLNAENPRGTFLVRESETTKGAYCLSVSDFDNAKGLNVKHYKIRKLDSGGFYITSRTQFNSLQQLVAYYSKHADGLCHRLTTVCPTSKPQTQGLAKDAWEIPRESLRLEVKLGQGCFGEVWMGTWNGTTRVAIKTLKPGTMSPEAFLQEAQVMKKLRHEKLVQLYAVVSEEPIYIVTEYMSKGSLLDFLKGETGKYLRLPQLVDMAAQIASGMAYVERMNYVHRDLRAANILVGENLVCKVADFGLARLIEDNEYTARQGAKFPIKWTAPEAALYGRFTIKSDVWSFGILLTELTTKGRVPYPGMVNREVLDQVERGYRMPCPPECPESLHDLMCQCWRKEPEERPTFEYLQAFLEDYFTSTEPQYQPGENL
T7 sequence (Q02763 23-1124): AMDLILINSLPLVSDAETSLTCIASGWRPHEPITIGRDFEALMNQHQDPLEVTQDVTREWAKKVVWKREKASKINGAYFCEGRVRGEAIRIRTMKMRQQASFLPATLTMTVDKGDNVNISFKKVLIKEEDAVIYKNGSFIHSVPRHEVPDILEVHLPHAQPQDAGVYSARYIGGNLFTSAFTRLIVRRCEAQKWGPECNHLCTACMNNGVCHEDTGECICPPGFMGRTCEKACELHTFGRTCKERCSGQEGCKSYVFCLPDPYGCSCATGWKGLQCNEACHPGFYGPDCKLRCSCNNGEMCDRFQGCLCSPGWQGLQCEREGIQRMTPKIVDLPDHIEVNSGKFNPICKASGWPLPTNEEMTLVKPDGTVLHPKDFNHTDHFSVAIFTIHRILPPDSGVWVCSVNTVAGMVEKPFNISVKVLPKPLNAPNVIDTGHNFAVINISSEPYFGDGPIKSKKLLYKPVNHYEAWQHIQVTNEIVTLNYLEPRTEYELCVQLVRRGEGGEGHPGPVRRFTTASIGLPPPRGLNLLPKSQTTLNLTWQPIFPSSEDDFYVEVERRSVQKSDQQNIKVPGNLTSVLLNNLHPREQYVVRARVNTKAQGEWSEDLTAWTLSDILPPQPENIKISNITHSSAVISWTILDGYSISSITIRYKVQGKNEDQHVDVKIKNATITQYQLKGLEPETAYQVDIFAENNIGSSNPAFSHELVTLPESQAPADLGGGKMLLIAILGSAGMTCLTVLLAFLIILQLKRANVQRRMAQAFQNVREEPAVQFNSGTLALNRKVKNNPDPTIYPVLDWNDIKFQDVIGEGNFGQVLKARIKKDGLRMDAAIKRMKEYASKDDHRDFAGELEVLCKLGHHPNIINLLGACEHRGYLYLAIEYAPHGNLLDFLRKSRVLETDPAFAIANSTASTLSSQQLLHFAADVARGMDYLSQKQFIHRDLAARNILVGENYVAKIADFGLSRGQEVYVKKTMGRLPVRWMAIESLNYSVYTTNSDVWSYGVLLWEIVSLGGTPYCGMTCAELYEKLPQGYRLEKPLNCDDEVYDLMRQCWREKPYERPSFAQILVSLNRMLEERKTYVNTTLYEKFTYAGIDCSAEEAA
T1 sequence (P00519 whole entry): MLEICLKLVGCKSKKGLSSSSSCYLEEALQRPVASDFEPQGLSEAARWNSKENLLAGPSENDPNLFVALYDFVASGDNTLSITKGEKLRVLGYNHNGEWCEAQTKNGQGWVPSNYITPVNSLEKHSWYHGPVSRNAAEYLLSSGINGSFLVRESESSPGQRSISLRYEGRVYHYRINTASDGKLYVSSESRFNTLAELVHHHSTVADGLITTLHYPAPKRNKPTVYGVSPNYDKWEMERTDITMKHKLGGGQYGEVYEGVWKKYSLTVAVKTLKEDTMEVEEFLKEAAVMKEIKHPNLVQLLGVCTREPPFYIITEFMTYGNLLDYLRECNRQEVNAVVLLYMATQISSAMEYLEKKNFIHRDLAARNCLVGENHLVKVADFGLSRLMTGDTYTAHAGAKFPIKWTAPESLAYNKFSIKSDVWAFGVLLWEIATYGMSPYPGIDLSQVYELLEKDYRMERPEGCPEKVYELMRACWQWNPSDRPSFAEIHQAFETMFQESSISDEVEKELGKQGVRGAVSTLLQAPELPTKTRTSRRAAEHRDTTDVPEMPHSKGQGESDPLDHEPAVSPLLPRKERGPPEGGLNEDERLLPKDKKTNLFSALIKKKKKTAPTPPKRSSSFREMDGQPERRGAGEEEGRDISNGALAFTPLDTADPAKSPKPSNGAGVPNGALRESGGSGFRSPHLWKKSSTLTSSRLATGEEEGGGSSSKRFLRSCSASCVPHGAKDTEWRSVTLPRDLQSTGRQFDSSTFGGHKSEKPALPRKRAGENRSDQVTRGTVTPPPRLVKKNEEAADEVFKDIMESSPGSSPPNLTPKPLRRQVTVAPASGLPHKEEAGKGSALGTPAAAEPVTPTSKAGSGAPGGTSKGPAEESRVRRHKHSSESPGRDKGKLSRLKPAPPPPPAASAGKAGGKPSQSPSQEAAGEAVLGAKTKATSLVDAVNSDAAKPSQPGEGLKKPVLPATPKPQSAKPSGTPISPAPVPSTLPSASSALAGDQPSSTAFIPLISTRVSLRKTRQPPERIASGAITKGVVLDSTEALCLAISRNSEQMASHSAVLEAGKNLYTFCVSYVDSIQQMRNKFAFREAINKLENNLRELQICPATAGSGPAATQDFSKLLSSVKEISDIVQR
T4 sequence (P11362 22-822): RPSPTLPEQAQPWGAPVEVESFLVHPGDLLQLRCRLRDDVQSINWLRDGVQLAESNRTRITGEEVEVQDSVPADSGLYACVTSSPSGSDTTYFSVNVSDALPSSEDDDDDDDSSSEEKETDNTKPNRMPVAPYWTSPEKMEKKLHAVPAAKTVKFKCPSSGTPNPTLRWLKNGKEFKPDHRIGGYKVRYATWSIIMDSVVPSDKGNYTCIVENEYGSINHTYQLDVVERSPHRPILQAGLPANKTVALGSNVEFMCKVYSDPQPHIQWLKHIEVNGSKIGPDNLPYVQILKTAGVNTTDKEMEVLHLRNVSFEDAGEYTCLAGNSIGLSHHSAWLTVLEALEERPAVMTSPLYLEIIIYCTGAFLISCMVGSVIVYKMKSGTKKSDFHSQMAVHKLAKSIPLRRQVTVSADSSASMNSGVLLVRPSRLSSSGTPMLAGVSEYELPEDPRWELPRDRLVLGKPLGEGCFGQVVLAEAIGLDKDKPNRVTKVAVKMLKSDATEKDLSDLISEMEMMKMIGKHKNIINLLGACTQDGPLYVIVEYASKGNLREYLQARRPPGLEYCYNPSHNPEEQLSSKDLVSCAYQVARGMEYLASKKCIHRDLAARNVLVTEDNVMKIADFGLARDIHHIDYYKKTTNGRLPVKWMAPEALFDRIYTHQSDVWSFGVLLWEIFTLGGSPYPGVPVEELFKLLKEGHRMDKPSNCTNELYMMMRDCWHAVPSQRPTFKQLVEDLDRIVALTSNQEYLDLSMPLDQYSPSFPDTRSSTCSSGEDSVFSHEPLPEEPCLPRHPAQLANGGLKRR

Row | SMILES | inhibition at 1 µM (Abl kinase) [%] | inhibition at 1 µM (Alk kinase) [%] | inhibition at 1 µM (c-Src kinase) [%] | inhibition at 1 µM (FGFR1 kinase) [%] | inhibition at 1 µM (KDR kinase) [%] | inhibition at 1 µM (Ret kinase) [%] | inhibition at 1 µM (Tie2) [%] | GI50 (MDA-MB134) [nM] | GI50 (AN3_CA) [nM] | GI50 (Kato III) [nM] | GI50 (KG1a) [nM] | GI50 (RT112) [nM]
1 | CC(=O)N1CCN(c2ccc(Nc3cc(Oc4cc(F)c5[nH]c(C)cc5c4F)ncn3)cc2)CC1 [Compound 50] | 36 | 63 | 58 | 89 | 97 | 36 | 48 | – | > 500 | 348 | – | –
2 | Cc1cc2c(F)c(Oc3cc(Nc4cc(-c5ccccc5)[nH]n4)ncn3)ccc2[nH]1 [Example 4] | 23 | 53 | 36 | 59 | 98 | 27 | 30 | – | > 500 | – | – | –
3 | CC(=O)Nc1ccc(Nc2cc(Oc3ccc4[nH]c(C)cc4c3F)ncn2)cc1 [Example 7] | 8 | 61 | 14 | 96 | 98 | -16 | 4 | – | > 500 | > 500 | – | –
4 | Cc1cc2c(F)c(Oc3cc(Nc4cccc(N5CCOCC5)c4)ncn3)ccc2[nH]1 [Example 8] | 11 | 60 | 15 | 97 | 98 | 22 | 2 | – | > 500 | > 500 | – | –
5 | Cc1cc2c(F)c(Oc3cc(Nc4ccc(N5CCOCC5)cc4)ncn3)ccc2[nH]1 [Example 9] | 21 | 70 | 20 | 75 | 96 | 35 | 24 | – | > 500 | > 500 | – | –
6 | CNC(=O)c1ccc(Nc2cc(Oc3ccc4[nH]c(C)cc4c3F)ncn2)cc1 [Example 12] | 18 | 60 | 30 | 89 | 98 | 21 | 20 | – | > 500 | > 500 | – | –
7 | Cc1cc2c(F)c(Oc3cc(Nc4cccc(N5CCN(C)CC5)c4)ncn3)ccc2[nH]1 [Example 13] | 41 | 60 | 32 | 98 | 98 | 61 | 70 | – | > 500 | 170 | – | –
8 | Cc1cc2c(F)c(Oc3cc(Nc4ccccn4)ncn3)ccc2[nH]1 [Example 18] | 45 | 15 | 21 | 87 | 92 | 68 | 48 | – | > 500 | – | – | –
9 | CCOC(=O)c1cc(Nc2cc(Oc3ccc4[nH]c(C)cc4c3F)ncn2)n[nH]1 [Example 19] | 18 | -5 | 8 | 59 | 89 | 48 | 13 | – | > 500 | – | – | –

Now from value to compound, other results behind:

Row | inhibition at 1 µM (Abl kinase) [%] | inhibition at 1 µM (Alk kinase) [%] | inhibition at 1 µM (c-Src kinase) [%] | inhibition at 1 µM (FGFR1 kinase) [%] | inhibition at 1 µM (KDR kinase) [%] | inhibition at 1 µM (Ret kinase) [%] | inhibition at 1 µM (Tie2) [%] | GI50 (MDA-MB134) [nM] | SMILES | GI50 (AN3_CA) [nM] | GI50 (Kato III) [nM] | GI50 (KG1a) [nM] | GI50 (RT112) [nM]
10 | -15 | -43 | 2 | 96 | 20 | -22 | 19 | > 500 | Cc1cc2c(F)c(Oc3ncnc(Nc4ccc(N5CCN(C)CC5)cc4)c3Cl)ccc2[nH]1 [Compound 35, 5-chloro-6-((4-fluoro-2-methyl-1H-indol-5-yl)oxy)-N-(4-(4-methylpiperazin-1-yl)phenyl)pyrimidin-4-amine] | > 500 | > 500 | > 500 | > 500
11 | 2 | -23 | -2 | 91 | 12 | -46 | 13 | 430 | Cc1cc2c(F)c(Oc3ncnc(Nc4ccc(N5CCN(C)CC5)cc4)c3C)ccc2[nH]1 [Compound 40] | > 500 | > 500 | > 500 | > 500
12 | 2 | -41 | 8 | 41 | 5 | -35 | 12 | 241 | Cc1cc2c(F)c(Oc3ncnc(Nc4ccc(N5CCN(C)CC5)cn4)c3C)ccc2[nH]1 [Compound 41] | > 500 | > 500 | > 500 | > 500
13 | -10 | -32 | -4 | 48 | -7 | -28 | 21 | > 500 | COc1c(Nc2ccc(N3CCN(C)CC3)cc2)ncnc1Oc1ccc2[nH]c(C)cc2c1F [Compound 43] | > 500 | > 500 | > 500 | > 500
14 | -6 | -18 | -11 | 16 | -1 | -12 | 11 | > 500 | COc1c(Nc2ccc(N3CCN(C)CC3)cn2)ncnc1Oc1ccc2[nH]c(C)cc2c1F [Compound 44] | > 500 | > 500 | > 500 | > 500
15 | -13 | -34 | 12 | 54 | 5 | -43 | 14 | 254 | Cc1cc2c(F)c(Oc3ncnc(Nc4ccc(N5CCN(C)CC5)cc4)c3N)ccc2[nH]1 [Compound 46] | > 500 | > 500 | > 500 | > 500
16 | -6 | -31 | -6 | 34 | 1 | -30 | 11 | > 500 | Cc1cc2c(F)c(Oc3ncnc(Nc4ccc(N5CCN(C)CC5)cn4)c3N)ccc2[nH]1 [Compound 47] | > 500 | > 500 | > 500 | > 500
17 | 0 | 38 | 11 | 97 | 96 | -12 | -6 | – | Cc1cc2c(F)c(Oc3ncnc(Nc4ccc(N5CCN(C)CC5)cc4)c3F)ccc2[nH]1 [Example 24] | > 500 | 386 | – | –
18 | 7 | 68 | 16 | 46 | 96 | -17 | -11 | – | CC(=O)N1CCN(c2ccc(Nc3ncnc(Oc4ccc5[nH]c(C)cc5c4F)c3F)cc2)CC1 [Example 26] | > 500 | > 500 | – | –
19 | 4 | 35 | 11 | 85 | 79 | -46 | -2 | – | Cc1cc2c(F)c(Oc3ncnc(Nc4ccc(N5CCN(C)CC5)cn4)c3F)ccc2[nH]1 [Example 27] | > 500 | > 500 | – | –
20 | 12 | 62 | 17 | 96 | 97 | -15 | -7 | – | Cc1cc2c(F)c(Oc3ncnc(Nc4ccc(N5CCNCC5)cc4)c3F)ccc2[nH]1 [Example 28] | > 500 | > 500 | – | –
21 | -7 | -48 | 15 | 92 | 70 | -29 | 33 | > 500 | CCN1CCN(c2ccc(Nc3ncnc(Oc4ccc5[nH]c(C)cc5c4F)c3F)nc2)CC1 [Example 29, N-(5-(4-ethylpiperazin-1-yl)pyridin-2-yl)-5-fluoro-6-((4-fluoro-2-methyl-1H-indol-5-yl)oxy)pyrimidin-4-amine] | > 500 | > 500 | – | –
